System: women requesting early pregnancy termination (<64 days of amenorrhea)
Test: Early pregnancy termination in women: oral mifepristone followed by oral lubiprostone
Format: in vivo
Conditions: twelve women, 200 mg mifepristone once orally, followed 24 hours later by oral lubiprostone 8 μg twice daily for 2 consecutive days
Experimental: Twelve women requesting early pregnancy termination (<64 days of amenorrhea) have received 200 mg mifepristone once, orally followed 24 hours later by the oral administration of lubiprostone (8 μg twice daily for 2 consecutive days). Efficacy rate (i.e. complete pregnancy termination, without need for surgical procedure) was […]. In one person, ovular fragments had to be removed at the uterine os with a forceps. Median bleeding time was 8 days. There was no specific adverse event except mild diarrhea in 3 subjects.

Median bleeding time: 8 days
Structure (SMILES): CCCCC(F)(F)[C@@]1(O)CC[C@H]2[C@@H](CC(=O)[C@@H]2CCCCCCC(=O)O)O1 [lubiprostone, 7-[(2R,4aR,5R,7aR)-2-(1,1-difluoropentyl)-2-hydroxy-6-oxo-3,4,4a,5,7,7a-hexahydrocyclopenta[b]pyran-5-yl]heptanoic acid]
Efficacy rate (i.e. complete pregnancy termination, without need for surgical procedure) (<64 days of amenorrhea): 97% | Adverse event: mild diarrhea (no other specific adverse event): 3 subjects | Ovular fragments had to be removed at the uterine os with a forceps: one

Source: patent publication US20120232043A1, “LUBIPROSTONE FOR OBSTETRICAL OR GYNECOLOGICAL APPLICATIONS” (CEMAG, priority 2009, published 2012)
